Laboratory results as given in article PMC4103530, “Antimicrobial Activity of Pantothenol against Staphylococci Possessing a Prokaryotic Type II Pantothenate Kinase” (Microbes and Environments, 2014).

Assays:
[1] = target: T1, EcCoaA (prokaryotic type I pantothenate kinase) (Escherichia coli, UniProt P0A6I3); assay: radiometric pantothenate kinase assay with D-[…]pantothenate; assay type: biochemical
T1 construct: gene coaA; recombinant from pET15b/bPanK in E. coli BL21 (DE3), nickel-resin purified, His-tag
T1 sequence (P0A6I3 1-316): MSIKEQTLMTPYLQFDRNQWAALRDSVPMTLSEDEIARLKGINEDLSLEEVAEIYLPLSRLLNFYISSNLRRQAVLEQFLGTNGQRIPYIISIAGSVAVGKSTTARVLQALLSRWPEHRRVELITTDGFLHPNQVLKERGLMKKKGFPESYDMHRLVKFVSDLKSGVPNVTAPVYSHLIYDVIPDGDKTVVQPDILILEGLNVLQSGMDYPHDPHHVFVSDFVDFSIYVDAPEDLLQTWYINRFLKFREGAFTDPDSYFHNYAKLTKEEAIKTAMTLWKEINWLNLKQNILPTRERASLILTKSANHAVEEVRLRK

[2] = target: T2, SaCoaA (prokaryotic type II pantothenate kinase) (Staphylococcus aureus, UniProt Q8NVG0); assay: as above; assay type: biochemical
T2 construct: gene coaW; recombinant from pET-28a(+) (pET-Sa-coaA) in E. coli BL21 (DE3), nickel-resin purified, His-tag
T2 sequence (Q8NVG0 1-267): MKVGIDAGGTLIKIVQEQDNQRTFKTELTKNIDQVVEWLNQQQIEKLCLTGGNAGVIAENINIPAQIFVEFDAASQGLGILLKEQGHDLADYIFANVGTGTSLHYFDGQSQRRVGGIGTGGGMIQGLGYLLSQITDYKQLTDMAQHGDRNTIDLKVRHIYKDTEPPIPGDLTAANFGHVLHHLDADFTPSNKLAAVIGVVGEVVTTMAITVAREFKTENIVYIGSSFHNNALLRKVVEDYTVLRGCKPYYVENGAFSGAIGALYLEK

CC(C)(CO)[C@@H](O)C(=O)NCCCO [d-pantothenol]
IC50 [1]: 6.06 mM | IC50 [2]: 1.68 mM
